Measurements from ChEMBL document CHEMBL3991601, “The target landscape of clinical kinase drugs” (Science, 2017).
Activity calls are given as the source filed them. Cut-off read from the data, not from the text of the source, for most assays here: actives have a measured Kd and inactives only a lower limit.

Columns and labels:
[1] = target: Calcium/calmodulin-dependent protein kinase type II subunit gamma (Homo sapiens, UniProt Q13555)
[2] = target: T1, Serine/threonine-protein kinase ULK3 (Homo sapiens, UniProt Q6PHR2)
T1 sequence (Q6PHR2 whole entry): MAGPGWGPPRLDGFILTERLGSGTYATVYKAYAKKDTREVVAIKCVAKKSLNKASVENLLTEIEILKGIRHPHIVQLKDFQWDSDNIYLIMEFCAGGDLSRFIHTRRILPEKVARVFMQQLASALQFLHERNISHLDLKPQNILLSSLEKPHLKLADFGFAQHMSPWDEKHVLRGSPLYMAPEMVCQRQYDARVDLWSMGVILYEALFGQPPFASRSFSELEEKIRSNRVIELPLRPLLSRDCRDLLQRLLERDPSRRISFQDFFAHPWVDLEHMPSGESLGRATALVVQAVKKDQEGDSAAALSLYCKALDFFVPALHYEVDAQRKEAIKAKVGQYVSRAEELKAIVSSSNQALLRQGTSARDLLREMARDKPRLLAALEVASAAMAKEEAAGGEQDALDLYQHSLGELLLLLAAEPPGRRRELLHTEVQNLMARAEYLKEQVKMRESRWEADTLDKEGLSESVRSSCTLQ

Myosin-14 = Myosin-14 (Homo sapiens, UniProt Q7Z406)
[3] = target: Cyclin-dependent kinase 1 (Homo sapiens, UniProt P06493)
Cyclin-dependent kinase 1, sequence (P06493 whole entry): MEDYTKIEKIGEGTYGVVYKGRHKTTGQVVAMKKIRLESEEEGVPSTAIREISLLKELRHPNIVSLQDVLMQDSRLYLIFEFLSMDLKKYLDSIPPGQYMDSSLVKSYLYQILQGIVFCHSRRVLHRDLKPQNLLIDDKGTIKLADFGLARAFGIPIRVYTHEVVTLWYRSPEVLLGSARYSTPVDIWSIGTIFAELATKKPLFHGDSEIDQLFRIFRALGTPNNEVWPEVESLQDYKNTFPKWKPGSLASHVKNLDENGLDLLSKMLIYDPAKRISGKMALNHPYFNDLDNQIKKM

[4] = target: T2, MAP kinase-activated protein kinase 5 (Homo sapiens, UniProt Q8IW41)
T2 sequence (Q8IW41 whole entry): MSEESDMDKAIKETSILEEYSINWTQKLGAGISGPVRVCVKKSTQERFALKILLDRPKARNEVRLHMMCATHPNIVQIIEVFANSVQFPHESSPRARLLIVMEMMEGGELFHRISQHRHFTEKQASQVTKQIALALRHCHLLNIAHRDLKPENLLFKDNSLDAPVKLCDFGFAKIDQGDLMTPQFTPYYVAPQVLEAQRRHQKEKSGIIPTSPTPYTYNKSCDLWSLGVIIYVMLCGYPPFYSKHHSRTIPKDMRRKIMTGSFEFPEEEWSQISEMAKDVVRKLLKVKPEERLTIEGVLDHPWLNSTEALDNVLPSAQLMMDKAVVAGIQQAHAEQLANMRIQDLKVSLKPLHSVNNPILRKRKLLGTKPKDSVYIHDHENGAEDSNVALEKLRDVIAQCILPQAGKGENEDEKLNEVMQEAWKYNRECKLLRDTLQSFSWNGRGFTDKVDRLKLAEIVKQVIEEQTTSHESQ

[5] = target: Mitogen-activated protein kinase kinase kinase 4 (Homo sapiens, UniProt Q9Y6R4)
Mitogen-activated protein kinase kinase kinase 4, sequence (Q9Y6R4 whole entry): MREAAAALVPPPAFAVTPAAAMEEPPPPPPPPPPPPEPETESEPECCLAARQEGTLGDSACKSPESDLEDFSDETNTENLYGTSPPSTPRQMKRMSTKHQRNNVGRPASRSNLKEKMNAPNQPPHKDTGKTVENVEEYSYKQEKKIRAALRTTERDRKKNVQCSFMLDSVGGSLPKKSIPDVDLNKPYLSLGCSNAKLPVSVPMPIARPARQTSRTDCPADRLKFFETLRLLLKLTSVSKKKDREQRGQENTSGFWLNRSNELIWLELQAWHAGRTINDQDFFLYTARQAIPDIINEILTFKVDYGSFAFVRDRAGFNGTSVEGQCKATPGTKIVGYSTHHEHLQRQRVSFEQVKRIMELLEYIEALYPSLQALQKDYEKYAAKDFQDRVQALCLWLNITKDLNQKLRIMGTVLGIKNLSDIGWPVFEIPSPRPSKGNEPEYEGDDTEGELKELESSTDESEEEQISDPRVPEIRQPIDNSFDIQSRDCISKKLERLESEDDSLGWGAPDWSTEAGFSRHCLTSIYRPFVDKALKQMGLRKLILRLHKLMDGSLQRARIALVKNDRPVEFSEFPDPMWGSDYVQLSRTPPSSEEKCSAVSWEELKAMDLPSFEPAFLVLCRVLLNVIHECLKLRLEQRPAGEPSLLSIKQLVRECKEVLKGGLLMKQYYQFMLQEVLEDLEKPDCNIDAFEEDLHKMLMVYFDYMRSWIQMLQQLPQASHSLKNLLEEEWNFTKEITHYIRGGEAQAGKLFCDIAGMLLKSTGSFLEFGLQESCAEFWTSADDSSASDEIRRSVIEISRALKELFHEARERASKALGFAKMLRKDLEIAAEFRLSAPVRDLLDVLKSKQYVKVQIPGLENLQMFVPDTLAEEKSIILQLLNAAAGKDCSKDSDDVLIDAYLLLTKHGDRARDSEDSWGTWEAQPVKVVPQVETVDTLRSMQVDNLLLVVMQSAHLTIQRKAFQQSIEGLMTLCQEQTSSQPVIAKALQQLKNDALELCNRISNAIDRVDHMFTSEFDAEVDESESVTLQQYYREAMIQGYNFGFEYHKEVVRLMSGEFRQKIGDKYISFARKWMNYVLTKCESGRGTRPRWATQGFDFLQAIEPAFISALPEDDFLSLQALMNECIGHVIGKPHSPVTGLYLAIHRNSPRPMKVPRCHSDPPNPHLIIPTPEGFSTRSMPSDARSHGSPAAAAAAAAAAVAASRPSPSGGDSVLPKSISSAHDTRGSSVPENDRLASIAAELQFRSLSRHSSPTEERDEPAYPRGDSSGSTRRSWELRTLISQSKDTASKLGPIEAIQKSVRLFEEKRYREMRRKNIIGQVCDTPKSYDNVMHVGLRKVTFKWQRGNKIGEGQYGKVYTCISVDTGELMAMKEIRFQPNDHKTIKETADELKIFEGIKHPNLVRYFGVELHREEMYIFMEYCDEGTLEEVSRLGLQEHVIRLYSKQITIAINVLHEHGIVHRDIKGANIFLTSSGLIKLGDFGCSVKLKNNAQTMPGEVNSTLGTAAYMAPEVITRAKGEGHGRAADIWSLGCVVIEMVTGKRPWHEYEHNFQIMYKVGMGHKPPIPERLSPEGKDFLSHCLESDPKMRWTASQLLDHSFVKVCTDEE

Insulin receptor = Insulin receptor (Homo sapiens, UniProt P06213)
Insulin receptor, sequence (P06213 28-758 limits assumed): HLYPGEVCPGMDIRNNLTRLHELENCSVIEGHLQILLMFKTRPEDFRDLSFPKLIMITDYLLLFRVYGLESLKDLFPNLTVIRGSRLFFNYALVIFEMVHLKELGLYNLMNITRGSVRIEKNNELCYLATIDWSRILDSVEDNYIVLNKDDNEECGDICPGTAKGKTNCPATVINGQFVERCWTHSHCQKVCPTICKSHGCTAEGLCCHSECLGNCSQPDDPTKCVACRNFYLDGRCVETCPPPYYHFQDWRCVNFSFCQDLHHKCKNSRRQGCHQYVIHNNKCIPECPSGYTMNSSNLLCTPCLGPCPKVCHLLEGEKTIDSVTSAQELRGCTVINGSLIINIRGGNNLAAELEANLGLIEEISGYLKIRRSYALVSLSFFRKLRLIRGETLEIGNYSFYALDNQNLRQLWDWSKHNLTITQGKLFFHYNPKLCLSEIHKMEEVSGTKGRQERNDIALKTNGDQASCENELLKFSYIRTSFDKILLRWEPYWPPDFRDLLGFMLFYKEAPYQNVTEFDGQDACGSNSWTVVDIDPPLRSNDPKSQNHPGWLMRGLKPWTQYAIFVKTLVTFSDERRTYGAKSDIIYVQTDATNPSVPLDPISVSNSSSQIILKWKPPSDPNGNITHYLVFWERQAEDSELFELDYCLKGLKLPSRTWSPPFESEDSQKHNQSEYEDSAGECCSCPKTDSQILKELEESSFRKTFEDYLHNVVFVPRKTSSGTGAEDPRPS
Insulin receptor, sequence (P06213 763-1382 limits assumed): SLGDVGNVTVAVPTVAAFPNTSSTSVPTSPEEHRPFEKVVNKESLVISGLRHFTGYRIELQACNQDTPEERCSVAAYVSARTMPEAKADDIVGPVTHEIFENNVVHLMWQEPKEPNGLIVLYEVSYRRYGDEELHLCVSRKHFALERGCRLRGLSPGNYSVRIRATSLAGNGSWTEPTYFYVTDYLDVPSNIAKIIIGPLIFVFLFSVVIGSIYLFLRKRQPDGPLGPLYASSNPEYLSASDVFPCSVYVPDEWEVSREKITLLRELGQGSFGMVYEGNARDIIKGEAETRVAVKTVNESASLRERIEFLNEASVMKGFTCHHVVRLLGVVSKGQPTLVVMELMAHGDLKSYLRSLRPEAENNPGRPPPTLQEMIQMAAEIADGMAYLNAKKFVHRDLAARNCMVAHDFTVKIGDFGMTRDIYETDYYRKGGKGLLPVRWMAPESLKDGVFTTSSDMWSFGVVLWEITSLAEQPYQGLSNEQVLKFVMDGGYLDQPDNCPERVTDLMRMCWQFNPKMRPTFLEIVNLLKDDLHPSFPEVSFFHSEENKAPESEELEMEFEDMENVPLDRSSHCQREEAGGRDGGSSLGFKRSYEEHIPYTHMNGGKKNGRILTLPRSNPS

[6] = target: T3, Serine/threonine-protein kinase Nek9 (Homo sapiens, UniProt Q8TD19)
T3 sequence (Q8TD19 whole entry): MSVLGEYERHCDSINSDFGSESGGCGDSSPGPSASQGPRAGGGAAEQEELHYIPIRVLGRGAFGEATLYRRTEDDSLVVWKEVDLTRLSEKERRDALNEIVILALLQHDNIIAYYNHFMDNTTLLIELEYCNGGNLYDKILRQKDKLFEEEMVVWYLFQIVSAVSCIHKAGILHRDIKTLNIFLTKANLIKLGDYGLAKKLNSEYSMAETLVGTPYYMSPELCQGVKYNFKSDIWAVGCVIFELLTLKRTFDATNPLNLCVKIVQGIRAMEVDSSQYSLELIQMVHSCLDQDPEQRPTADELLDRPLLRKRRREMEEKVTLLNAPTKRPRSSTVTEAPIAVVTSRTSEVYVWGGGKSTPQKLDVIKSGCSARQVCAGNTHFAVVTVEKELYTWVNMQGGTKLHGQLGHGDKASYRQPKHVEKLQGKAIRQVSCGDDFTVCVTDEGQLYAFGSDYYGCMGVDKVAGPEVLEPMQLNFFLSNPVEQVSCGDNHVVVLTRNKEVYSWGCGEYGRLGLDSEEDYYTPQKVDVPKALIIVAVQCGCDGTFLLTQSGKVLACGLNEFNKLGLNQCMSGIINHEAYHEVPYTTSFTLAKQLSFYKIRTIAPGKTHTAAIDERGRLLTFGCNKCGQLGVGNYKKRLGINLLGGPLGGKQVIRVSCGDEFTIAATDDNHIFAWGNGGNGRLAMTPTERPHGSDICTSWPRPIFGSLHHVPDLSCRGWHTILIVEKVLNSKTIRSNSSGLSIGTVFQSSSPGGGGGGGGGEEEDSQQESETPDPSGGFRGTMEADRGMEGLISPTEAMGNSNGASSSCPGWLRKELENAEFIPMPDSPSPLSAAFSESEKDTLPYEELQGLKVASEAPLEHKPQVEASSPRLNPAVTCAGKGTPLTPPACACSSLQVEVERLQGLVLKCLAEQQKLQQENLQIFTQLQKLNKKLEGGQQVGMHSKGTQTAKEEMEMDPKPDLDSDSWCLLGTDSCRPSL

[7] = target: Serine/threonine-protein kinase SIK2 (Homo sapiens, UniProt Q9H0K1)
Serine/threonine-protein kinase SIK2, sequence (Q9H0K1 whole entry): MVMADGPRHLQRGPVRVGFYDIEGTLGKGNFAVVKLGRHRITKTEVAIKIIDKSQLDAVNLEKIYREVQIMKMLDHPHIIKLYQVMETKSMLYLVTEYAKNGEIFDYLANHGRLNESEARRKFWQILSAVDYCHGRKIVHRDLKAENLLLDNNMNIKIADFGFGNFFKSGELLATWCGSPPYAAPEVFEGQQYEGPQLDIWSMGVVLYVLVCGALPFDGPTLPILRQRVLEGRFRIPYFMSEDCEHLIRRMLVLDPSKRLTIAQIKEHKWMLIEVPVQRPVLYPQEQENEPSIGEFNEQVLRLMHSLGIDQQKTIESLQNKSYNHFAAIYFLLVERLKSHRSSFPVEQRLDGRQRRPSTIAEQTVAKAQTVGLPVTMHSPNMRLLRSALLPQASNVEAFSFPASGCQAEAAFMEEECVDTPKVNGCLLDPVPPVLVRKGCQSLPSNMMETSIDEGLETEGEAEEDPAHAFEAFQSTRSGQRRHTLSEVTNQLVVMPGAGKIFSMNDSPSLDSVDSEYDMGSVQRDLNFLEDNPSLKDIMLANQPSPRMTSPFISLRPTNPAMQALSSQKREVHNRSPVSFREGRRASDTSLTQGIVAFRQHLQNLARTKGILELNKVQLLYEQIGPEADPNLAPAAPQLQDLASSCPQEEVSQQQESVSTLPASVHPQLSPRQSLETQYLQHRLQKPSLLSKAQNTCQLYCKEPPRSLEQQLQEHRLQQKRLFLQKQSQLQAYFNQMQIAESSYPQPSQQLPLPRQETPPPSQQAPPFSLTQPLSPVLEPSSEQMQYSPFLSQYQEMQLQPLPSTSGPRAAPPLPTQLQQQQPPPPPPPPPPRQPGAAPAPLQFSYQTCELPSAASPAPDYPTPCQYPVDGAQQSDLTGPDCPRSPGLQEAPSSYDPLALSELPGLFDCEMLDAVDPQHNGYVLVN

[8] = target: Tyrosine-protein kinase ABL1 (Homo sapiens, UniProt P00519)
[9] = target: Insulin-like growth factor 1 receptor (Homo sapiens, UniProt P08069)
[10] = target: T4, Ribosyldihydronicotinamide dehydrogenase [quinone] (Homo sapiens, UniProt P16083)
T4 sequence (P16083 whole entry): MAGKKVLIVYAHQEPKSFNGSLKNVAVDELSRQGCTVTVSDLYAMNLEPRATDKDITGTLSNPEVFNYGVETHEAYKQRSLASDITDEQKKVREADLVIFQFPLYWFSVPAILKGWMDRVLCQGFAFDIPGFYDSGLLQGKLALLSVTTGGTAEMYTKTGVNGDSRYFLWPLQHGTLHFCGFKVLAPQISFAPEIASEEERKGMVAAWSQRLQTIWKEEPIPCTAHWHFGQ
Note: in the data inactive means no Kd found up to 30 µM.

Calcium/calmodulin-dependent protein kinase type II subunit gamma, sequence (Q13555 whole entry): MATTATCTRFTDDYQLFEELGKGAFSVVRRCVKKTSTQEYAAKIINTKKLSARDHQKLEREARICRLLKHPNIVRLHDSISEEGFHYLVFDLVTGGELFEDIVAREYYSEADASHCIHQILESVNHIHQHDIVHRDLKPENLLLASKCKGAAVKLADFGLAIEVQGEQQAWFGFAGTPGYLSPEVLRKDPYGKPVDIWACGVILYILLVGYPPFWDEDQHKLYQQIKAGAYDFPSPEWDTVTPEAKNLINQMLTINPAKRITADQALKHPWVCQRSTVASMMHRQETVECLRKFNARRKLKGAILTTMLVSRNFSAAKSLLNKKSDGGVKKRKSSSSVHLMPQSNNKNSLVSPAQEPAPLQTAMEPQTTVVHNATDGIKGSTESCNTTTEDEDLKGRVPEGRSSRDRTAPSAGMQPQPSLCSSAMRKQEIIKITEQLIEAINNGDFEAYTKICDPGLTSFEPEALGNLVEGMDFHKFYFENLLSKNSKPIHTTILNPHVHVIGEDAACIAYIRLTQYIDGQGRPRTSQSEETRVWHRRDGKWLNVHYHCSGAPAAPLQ

Row | Structure (SMILES) | Kd [1] | Kd [2] | Kd (Myosin-14) | Kd [3] | Kd [4] | Kd [5] | Kd (Insulin receptor) | Kd [6] | Kd [7] | Kd [8] | Kd [9] | Kd [10]
1 | O=c1[nH]c([C@@H]2CCCN2)nc2c1oc1ccc(Cl)cc12 | > 30 µM (inactive) | > 30 µM (inactive) | > 30 µM (inactive) | > 30 µM (inactive) | > 30 µM (inactive) | > 30 µM (inactive) | > 30 µM (inactive) | > 30 µM (inactive) | > 30 µM (inactive) | > 30 µM (inactive) | > 30 µM (inactive) | > 30 µM (inactive)
2 | CCN1CCN(Cc2ccc(Nc3ncc(F)c(-c4cc(F)c5nc(C)n(C(C)C)c5c4)n3)nc2)CC1 [ABEMACICLIB] | 0.018 µM (active) | > 30 µM (inactive) | > 30 µM (inactive) |  | > 30 µM (inactive) | > 30 µM (inactive) | > 30 µM (inactive) | > 30 µM (inactive) | > 30 µM (inactive) | > 30 µM (inactive) | > 30 µM (inactive) | > 30 µM (inactive)
3 | CCOc1ccn(-c2ccc(F)cc2)c(=O)c1C(=O)Nc1ccc(Oc2ccnc(N)c2Cl)c(F)c1 [BMS-777607] |  |  |  | > 30 µM (inactive) | > 30 µM (inactive) | > 30 µM (inactive) |  | > 30 µM (inactive) | > 30 µM (inactive) | 0.523 µM (active) | > 30 µM (inactive) | > 30 µM (inactive)
4 | CC1(COc2ccc3c(c2)ncn3-c2ccc3cccc(N4CCC(N)CC4)c3n2)COC1 [CRENOLANIB] | 0.766 µM (active) | > 30 µM (inactive) | > 30 µM (inactive) | 1.38 µM (active) | > 30 µM (inactive) | > 30 µM (inactive) | > 30 µM (inactive) | > 30 µM (inactive) |  | > 30 µM (inactive) | > 30 µM (inactive) | 
5 | O=S(=O)(c1cccc2cnccc12)N1CCCNCC1 [FASUDIL] | > 30 µM (inactive) | > 30 µM (inactive) | > 30 µM (inactive) |  | > 30 µM (inactive) | > 30 µM (inactive) |  | > 30 µM (inactive) | > 30 µM (inactive) | > 30 µM (inactive) | > 30 µM (inactive) | 2.45 µM (active)
6 | CCc1nc(C(N)=O)c(Nc2ccc(N3CCC(N4CCN(C)CC4)CC3)c(OC)c2)nc1NC1CCOCC1 [GILTERITINIB] | 0.169 µM (active) | 0.006 µM (active) | > 30 µM (inactive) | > 30 µM (inactive) | > 30 µM (inactive) | > 30 µM (inactive) |  | > 30 µM (inactive) | > 30 µM (inactive) | > 30 µM (inactive) | > 30 µM (inactive) | 1.7 µM (active)
7 | O=S(=O)(c1cccc2c(O)nccc12)N1CCCNCC1 [HYDROXYFASUDIL] | > 30 µM (inactive) | > 30 µM (inactive) | > 30 µM (inactive) | > 30 µM (inactive) | > 30 µM (inactive) | > 30 µM (inactive) | > 30 µM (inactive) | > 30 µM (inactive) | > 30 µM (inactive) |  | > 30 µM (inactive) | > 30 µM (inactive)
8 | FC(F)(F)c1ccc(CNc2ccc(Cc3c[nH]c4ncc(Cl)cc34)cn2)cn1 [PEXIDARTINIB] | > 30 µM (inactive) | > 30 µM (inactive) |  | > 30 µM (inactive) | > 30 µM (inactive) | > 30 µM (inactive) | > 30 µM (inactive) | > 30 µM (inactive) | > 30 µM (inactive) | > 30 µM (inactive) | > 30 µM (inactive) | > 30 µM (inactive)
9 | COCCN1CCN(Cc2ccc(-c3n[nH]c4c3C(=O)c3c(NC(=O)NN5CCOCC5)cccc3-4)cc2)CC1 [RGB-286638] | > 30 µM (inactive) | > 30 µM (inactive) |  | 1.34 µM (active) | > 30 µM (inactive) | > 30 µM (inactive) | > 30 µM (inactive) | > 30 µM (inactive) | 0.207 µM (active) | > 30 µM (inactive) | > 30 µM (inactive) | > 30 µM (inactive)
10 | O=C(O)c1ccc2c(c1)nc(Nc1cccc(Cl)c1)c1ccncc12 [SILMITASERTIB] | > 30 µM (inactive) | > 30 µM (inactive) | > 30 µM (inactive) |  | > 30 µM (inactive) | > 30 µM (inactive) | > 30 µM (inactive) | > 30 µM (inactive) | > 30 µM (inactive) | > 30 µM (inactive) | > 30 µM (inactive) | > 30 µM (inactive)
11 | C=CCN(/C=C1/C(=O)O[C@H](COC)[C@@]2(C)C1=C(O)C(=O)C1=C2[C@H](OC(C)=O)C[C@]2(C)C(=O)CC[C@@H]12)CC=C [SONOLISIB] | > 30 µM (inactive) | > 30 µM (inactive) |  | > 30 µM (inactive) | > 30 µM (inactive) | > 30 µM (inactive) | > 30 µM (inactive) | > 30 µM (inactive) | > 30 µM (inactive) | > 30 µM (inactive) | > 30 µM (inactive) | > 30 µM (inactive)
12 | CN1CCN(c2nc(C3=C(c4c[nH]c5ccccc45)C(=O)NC3=O)c3ccccc3n2)CC1 [SOTRASTAURIN] | > 30 µM (inactive) | > 30 µM (inactive) | > 30 µM (inactive) |  | > 30 µM (inactive) | > 30 µM (inactive) |  | > 30 µM (inactive) | > 30 µM (inactive) | > 30 µM (inactive) | > 30 µM (inactive) | > 30 µM (inactive)
13 | O[C@H]1CC[C@H](Nc2ncc3nc(Nc4c(F)cc(F)cc4F)n([C@H]4CCOC4)c3n2)CC1 [TANZISERTIB] | > 30 µM (inactive) | > 30 µM (inactive) |  | > 30 µM (inactive) | > 30 µM (inactive) | > 30 µM (inactive) | > 30 µM (inactive) | > 30 µM (inactive) | > 30 µM (inactive) | > 30 µM (inactive) | > 30 µM (inactive) | > 30 µM (inactive)
14 | CNC(=O)c1cc(COc2nnc(Nc3ccc(Cl)cc3)c3ccoc23)ccn1 [TELATINIB] | > 30 µM (inactive) | > 30 µM (inactive) |  | > 30 µM (inactive) | > 30 µM (inactive) | > 30 µM (inactive) | > 30 µM (inactive) | > 30 µM (inactive) | > 30 µM (inactive) | > 30 µM (inactive) | > 30 µM (inactive) | > 30 µM (inactive)
